The text below walks through data of patent publication US20260325520A1, “METHODS FOR TREATING OR PREVENTING NEUROENDOCRINE TUMR FORMATION USING CDC7 INHIBITORS” (Memorial Sloan-Kettering Cancer Center, priority 2022, published 2026).

Test [1] has as its system SCLC cell lines (control and CDC7 KO). The test is described as follows: Viability of control and CDC7 CRISPR-Cas9 KO cell lines treated with simurosertib. In kind it is cell-based. To be noted: GI50 concentration. An excerpt: FIG. 1A: CDC7 mRNA expression in cell lines derived from different tumor types. The data was obtained from CCLE through UCSC Xenabrowser portal (https://xenabrowser.net/) in December 2020. Lines indicate the median CDC7 mRNA expression in SCLC cell lines. FIG. 1B: CDC7 protein expression assessed by IHC in NSCLC (N=58) and SCLC (N=45) clinical samples. Protein expression is shown as IHC score. H-score medians and standard deviation are shown. FIG. 1C: Western blot showing CDC7 KO in H82 (SCLC-N) and H146 (SCLC-A) SCLC cell lines. Proliferation (FIG. 1D) and soft agar colony formation (FIG. 1E) assays in isogenic H82 and H146 cell lines with CDC7 KO. In FIG. 1D, lower line graphs correspond to CDC7 KO (sgCDC7). FIG. 1F: Ectopic overexpression of CDC7 in H69 (SCLC-A) and DMS114 (SCLC-Y) SCLC cell lines. Proliferation (FIG. 1G) and soft agar colony formation (FIG. 1H) assays in isogenic H69 and DMS114 cell lines with ectopic CDC7 overexpression. […] FIG. 1I: Bivariate correlation of CDC7 mRNA and protein expression with simurosertib or LY3143921 sensitivity (assessed as growth inhibition) in an array of SCLC cell lines. Correlation was calculated with Spearman's test. […]
Cytotoxic assays were performed as described in ^19. […] Viability was assessed with the CellTiter-Glo 2.0 Assay (Promega, G9242) as indicated by manufacturer.

A further test relates to MYC. The test is described as follows: Western blot of MYC in tumors collected at intermediate time point. In kind it is in vivo, mice. To be noted: western blot (FIG. 6B). From the text: FIG. 6A: Pathway enrichment analyses on differentially expressed genes between the combo-and enzalutamide-treated tumors, collected at an intermediate time point in the for TP53/RB1-inactivated LnCap and 22PC experiments shown in FIG. 5. […] FIG. 6C: MYC mRNA levels in the tumors collected at endpoint in the prostate transformation models treated in FIG. 5A. FIG. 6D: Barplot showing proteasome activity in control and CDC7-inhibited (either pharmacologically by simurosertib, or genetically by CDC7 CRISPR KO) prostate transformation models. FIG. 6E: Western blots showing neuroendocrine marker expression in prostate models of transformation, when treated with enzalutamide, simurosertib or their combination. Specifically, for each treatment condition, isogenic control and MYC^T58A-expressing cells were analyzed.
Protein extraction and western blot were performed as previously described^21. Antibodies for CDC7 (#3603, Cell Signaling Technology), MYC (#5605, Cell Signaling Technology), synaptophysin (#36406, Cell Signaling Technology), CD56 (#99746, Cell Signaling Technology), AR (#5153, Cell Signaling Technology vinculin (#13901, Cell Signaling Technology), tubulin (#3873, Cell Signaling Technology) and actin (#3700, Cell Signaling Technology). Quantifications were performed with the Image Studio software (Version 3.1, Li-Cor). Immunohistochemistry for CDC7 was performed with the CDC7 antibody #MA5-12589 from Invitrogen in TMAs including resected tumor samples form SCLC and NSCLC patients. All study subjects had provided signed informed consent for biospecimen analyses under an Institutional Review Board-approved protocol.

Take `Cc1n[nH]cc1-c1cc2nc([C@@H]3CC4CCN3CC4)[nH]c(=O)c2s1` [simurosertib]: the “simurosertib sensitivity of CDC7 KO cells” value in test [1] is “CDC7 KO rendered the cells resistant to simurosertib”. Moreover, the MYC protein expression entry with MYC is “MYC downregulation”.
